Source: patent publication US20230129485A1, “SYSTEM AND METHOD FOR DETERMINING MATERIAL PROPERTIES OF MOLECULAR SYSTEMS FROM AN AB-INITIO PARAMETERIZED FORCE-FIELD” (InterX, Inc., priority 2021, published 2023)
Read-outs that look alike come from different tables or passages of the source.

Tests used:
[1] = Free energy of hydration predicted with the QM-parameterized force field model (ARROW FF), classical MD and PIMD simulation in a water box; conditions: for Arrow PIMD8 Error: absolute error vs Exp (hydration)
Outline: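 Solute decoupled from solvent in a 32×32×32 Å3 water box (PME, 9 Å cutoffs), electrostatics, exchange-repulsion and dispersion switched off together over 15 lambda points with soft-coring. Steepest-descent minimization, 50 ps equilibration, 1 ns NPT production at 1 atm; classical and path-integral MD. Free energy from BAR and TI.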

[2] = Free energy of hydration by COSMO implicit solvent model (MolPro ver. 2012); conditions: absolute error vs Exp (hydration)
Outline: (§1)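 COSMO solvation free energies were calculated for the molecule set with MolPro because no original-COSMO free energy data were available. SMD and PCM hydration free energies were obtained as received. SMD, PCM and COSMO-RS values cover only molecules that overlap with those computed using the QM-parameterized force field model.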

[3] = Free energy of hydration by Solvation Model Dielectric (SMD) implicit solvent model; conditions: absolute error vs Exp (hydration)
Outline: as §1

[4] = Free energy of hydration by Polarizable Continuum Model (PCM); conditions: absolute error vs Exp (hydration)
Outline: as §1

[5] = Free energy of hydration by COSMO-RS
Outline: as §1

[6] = Free energy of hydration by Free Energy Machine Learning Model (FML); conditions: absolute error vs Exp (hydration)
Source text: Machine learning models can be used for free energy determination.

[7] = experimental, cited from earlier work
[8] = implicit solvent model, values received; cited from earlier work
[9] = implicit solvent model, values received; cited from earlier work; remark: listed apart in the source
[10] = Free energy of solvation in cyclohexane predicted with the QM-parameterized force field model (ARROW FF), MD and PIMD; conditions: Table 4
Source text: Cyclohexane (CHEX) is nonpolar and equilibrates relatively quickly.
Particle-Mesh Ewald (PME) algorithm was used to compute the electrostatic interactions. A 32×32×32 grid mesh and 5th power spline interpolation order can be used to compute the inverse PME sum. 9 Å cutoffs were used to compute the direct PME sum as well as the exchange and dispersion interactions. Bulk corrections were applied to account for distance cut-off of dispersion interactions. Solvation free energies were computed by decoupling the interactions between the solute and the solvent molecules. Electrostatic, exchange-repulsion and dispersion interactions were switched off simultaneously using a lambda-dependent scaling (a scaling factor power=2 was used) and a soft-coring algorithm (maximal soft-coring radius=1.5 Å, soft-coring radius scaling factor power=1). 15 lambda points unequally spaced (X=0, 0.05, 0.1, 0.2, 0.3, 0.4, 0.5, 0.6, 0.7, 0.75, 0.8, 0.85, 0.9, 0.95, 1.0) were used to decouple the solute-solvent intermolecular interactions.
In some simulations of the QM-parameterized force field molecular simulation process, energy minimization (10,000 steps) using the steepest descent algorithm was initially performed on all the simulation systems. This was followed by a 50 ps equilibration and 1 ns production runs in the isothermal-isobaric ensemble (NPT). […] Pressure was maintained at 1 atm using a MTTK barostat (relaxation time=5 ps). A Multiple Time Step (MTS) algorithm was used to integrate the equations of motion both for the classical and path-integral runs. […] The calculations were performed using the QM-parameterized force field model.
Using the QM-parameterized force field model, the QM-parameterized force field device can compute or predict the solvation free energies using both the Bennett acceptance ratio (BAR) and thermodynamic integration (TI) method with <dH/dλ> values interpolated by cubic splines.

[11] = CHEX/H2O partition coefficient (log D) predicted with the QM-parameterized force field model (ARROW FF)
Outline: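 Cyclohexane/water partition coefficients were predicted by molecular simulation with a QM-parameterized force field, with bonded force constants and equilibrium values fitted to MP2/aug-cc-pVTZ energies. Solutes carried neutral functional groups, and results from four independent groups were averaged.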

[12] = Free energy of hydration predicted by General Amber Force Field (GAFF), from literature; conditions: Table 5; error of GAFF hydration free energy vs experiment
[13] = Free energy of hydration predicted by polarizable AMOEBA force field, from literature; conditions: Table 5; error of AMOEBA hydration free energy vs experiment
[14] = experimental, cited from earlier work; remark: listed apart in the source
[15] = Table 5; free energy of hydration, GAFF prediction taken from literature; cited from earlier work
[16] = Table 5; free energy of hydration, AMOEBA prediction taken from literature; cited from earlier work
[17] = CHEX/H2O partition coefficient, experimental, cited from earlier work; for Exp (log D): Table 3
[18] = Table 3, absolute error of MD hydration free energy vs experiment
[19] = Table 3, absolute error of PIMD8 hydration free energy vs experiment
[20] = Table 3, free energy of hydration
[21] = Table 3, absolute error of MD log D vs experiment
[22] = Table 3, absolute error of PIMD log D vs experiment
[23] = Table 3, free energy of solvation in cyclohexane

Compound: CCCCCO [1-Pentanol]
- water Arrow MD Error [1, 18]: 1.18 kcal/mol
- water Arrow PIMD8 Error [1, 19]: 0.05 kcal/mol
- Arrow PIMD8 Error [1]: 0.05 kcal/mol
- COSMO/Molpro Error [2]: 2.21 kcal/mol
- SMD Error [3]: 0.47 kcal/mol
- PCM Error [4]: 1.17 kcal/mol
- COSMO-RS error [5]: 0.11 kcal/mol
- FML error [6]: 0.30 kcal/mol
- water Exp (hydration) [7, 20]: -4.47 kcal/mol
- SMD free energy of hydration [8]: -4.00 kcal/mol
- PCM free energy of hydration [9]: -3.30 kcal/mol

Compound: CCC(C)O (centres unmarked) [2-Butanol]
- water Arrow MD Error [1, 18]: 1.41 kcal/mol
- water Arrow PIMD8 Error [1, 19]: 0.08 kcal/mol
- Arrow PIMD8 Error [1]: 0.08 kcal/mol
- COSMO/Molpro Error [2]: 1.11 kcal/mol
- COSMO-RS error [5]: 0.77 kcal/mol
- FML error [6]: 0.61 kcal/mol
- water Exp (hydration) [7, 20]: -4.58 kcal/mol

Compound: CCCC(C)O (centres unmarked) [2-Pentanol]
- water Arrow MD Error [1, 18]: 1.68 kcal/mol
- water Arrow PIMD8 Error [1, 19]: 0.08 kcal/mol
- Arrow PIMD8 Error [1]: 0.08 kcal/mol
- COSMO/Molpro Error [2]: 1.38 kcal/mol
- FML error [6]: 0.40 kcal/mol
- water Exp (hydration) [7, 20]: -4.39 kcal/mol

Compound: CCC(O)CC [3-Pentanol]
- water Arrow MD Error [1, 18]: 1.36 kcal/mol
- water Arrow PIMD8 Error [1, 19]: 0.15 kcal/mol
- Arrow PIMD8 Error [1]: 0.15 kcal/mol
- COSMO/Molpro Error [2]: 1.01 kcal/mol
- FML error [6]: 0.58 kcal/mol
- water Exp (hydration) [7, 20]: -4.35 kcal/mol

Compound: CCCC [Butane]
- water Arrow MD Error [1, 18]: 0.70 kcal/mol
- water Arrow PIMD8 Error [1, 19]: 0.04 kcal/mol
- water Arrow MD Error ([1]; Table 4, error of MD hydration free energy vs experiment): 0.70 kcal/mol
- water Arrow PIMD8 Error ([1]; Table 4, error of PIMD8 hydration free energy vs experiment): 0.04 kcal/mol
- Arrow error ([1]; Table 5, error of Arrow PIMD8 hydration free energy vs experiment): 0.04 kcal/mol
- Arrow PIMD8 Error [1]: 0.04 kcal/mol
- CHEX Arrow MD Error ([10]; error of MD cyclohexane solvation free energy vs experiment): 0.46 kcal/mol
- CHEX Arrow PIMD4 Error ([10]; error of PIMD4 cyclohexane solvation free energy vs experiment): 0.20 kcal/mol
- log D Arrow MD Error [11, 21]: 0.18
- log D Arrow PIMD Error [11, 22]: 0.17
- logD Arrow MD Error ([11]; Table 4, error of MD logD vs experiment): 0.18
- logD Arrow PIMD Error ([11]; Table 4, error of PIMD logD vs experiment): 0.17
- GAFF error [12]: 0.44 kcal/mol
- AMOEBA error [13]: 0.99 kcal/mol
- COSMO/Molpro Error [2]: 2.65 kcal/mol
- SMD Error [3]: 0.10 kcal/mol
- PCM Error [4]: 2.30 kcal/mol
- COSMO-RS error [5]: 0.03 kcal/mol
- water Exp (hydration) [7, 20]: 2.10 kcal/mol
- water Exp (hydration) ([7]; Table 4, neutral amino-acid analogues): 2.10 kcal/mol
- Exp (hydration) ([7]; Table 5, free energy of hydration): 2.10 kcal/mol
- CHEX Exp (solvation) [14, 23]: -2.72 kcal/mol
- CHEX Exp (solvation) ([14]; Table 4, solvation free energy in cyclohexane): -2.72 kcal/mol
- GAFF [15]: 2.54 kcal/mol
- AMOEBA [16]: 1.11 kcal/mol
- SMD free energy of hydration [8]: 2.00 kcal/mol
- PCM free energy of hydration [9]: -0.20 kcal/mol
- Exp (log D) [17]: 3.54
- logD Exp (logD) ([17]; Table 4): 3.54

Compound: CCCCOC(C)=O [ButylAcetate]
- water Arrow MD Error [1, 18]: 0.85 kcal/mol
- water Arrow PIMD8 Error [1, 19]: 0.07 kcal/mol
- Arrow PIMD8 Error [1]: 0.07 kcal/mol
- log D Arrow MD Error [11, 21]: 0.60
- log D Arrow PIMD Error [11, 22]: 0.06
- COSMO/Molpro Error [2]: 4.19 kcal/mol
- SMD Error [3]: 0.35 kcal/mol
- PCM Error [4]: 1.25 kcal/mol
- FML error [6]: 0.61 kcal/mol
- water Exp (hydration) [7, 20]: -2.55 kcal/mol
- CHEX Exp (solvation) [14, 23]: -4.94 kcal/mol
- SMD free energy of hydration [8]: -2.90 kcal/mol
- PCM free energy of hydration [9]: -3.80 kcal/mol
- Exp (log D) [17]: 1.75

Compound: C1CC1 [Cyclopropane]
- water Arrow MD Error [1, 18]: 0.30 kcal/mol
- water Arrow PIMD8 Error [1, 19]: 0.29 kcal/mol
- Arrow PIMD8 Error [1]: 0.29 kcal/mol
- COSMO/Molpro Error [2]: 2.05 kcal/mol
- SMD Error [3]: 0.65 kcal/mol
- PCM Error [4]: 1.35 kcal/mol
- COSMO-RS error [5]: 0.40 kcal/mol
- FML error [6]: 0.76 kcal/mol
- water Exp (hydration) [7, 20]: 0.75 kcal/mol
- SMD free energy of hydration [8]: 0.10 kcal/mol
- PCM free energy of hydration [9]: -0.60 kcal/mol

Compound: C1CCCC1 [Cyctopentane]
- Arrow PIMD8 Error [1]: 0.12 kcal/mol
- SMD Error [3]: 0.10 kcal/mol
- PCM Error [4]: 1.40 kcal/mol
- COSMO-RS error [5]: 0.17 kcal/mol
- FML error [6]: 0.32 kcal/mol
- SMD free energy of hydration [8]: 1.30 kcal/mol
- PCM free energy of hydration [9]: -0.20 kcal/mol

Compound: CCOC(C)=O [EthylAcetate]
- water Arrow MD Error [1, 18]: 0.28 kcal/mol
- water Arrow PIMD8 Error [1, 19]: 0.32 kcal/mol
- Arrow PIMD8 Error [1]: 0.32 kcal/mol
- log D Arrow MD Error [11]: 0.46
- log D Arrow PIMD Error [11]: 0.13
- COSMO/Molpro Error [2]: 3.95 kcal/mol
- SMD Error [3]: 0.02 kcal/mol
- PCM Error [4]: 0.58 kcal/mol
- FML error [6]: 0.02 kcal/mol
- water Exp (hydration) [7, 20]: -3.12 kcal/mol
- CHEX Exp (solvation) [14, 23]: -3.55 kcal/mol
- SMD free energy of hydration [8]: -3.10 kcal/mol
- PCM free energy of hydration [9]: -3.70 kcal/mol
- Exp (log D) [17]: 0.32

Compound: CCC(=O)OC [MethylPropionate]
- water Arrow MD Error [1, 18]: 0.62 kcal/mol
- water Arrow PIMD8 Error [1, 19]: 0.10 kcal/mol
- Arrow PIMD8 Error [1]: 0.10 kcal/mol
- log D Arrow MD Error [11, 21]: 0.84
- log D Arrow PIMD Error [11, 22]: 0.45
- COSMO/Molpro Error [2]: 3.75 kcal/mol
- SMD Error [3]: 0.23 kcal/mol
- PCM Error [4]: 0.57 kcal/mol
- FML error [6]: 0.20 kcal/mol
- water Exp (hydration) [7, 20]: -2.93 kcal/mol
- CHEX Exp (solvation) [14, 23]: -3.71 kcal/mol
- SMD free energy of hydration [8]: -2.70 kcal/mol
- PCM free energy of hydration [9]: -3.50 kcal/mol
- Exp (log D) [17]: 0.57

Compound: CCCOC(C)=O [PropylAcetate]
- water Arrow MD Error [1, 18]: 0.64 kcal/mol
- water Arrow PIMD8 Error [1, 19]: 0.07 kcal/mol
- Arrow PIMD8 Error [1]: 0.07 kcal/mol
- log D Arrow MD Error [11]: 0.65
- log D Arrow PIMD Error [11]: 0.37
- COSMO/Molpro Error [2]: 4.12 kcal/mol
- SMD Error [3]: 0.14 kcal/mol
- PCM Error [4]: 0.94 kcal/mol
- FML error [6]: 0.24 kcal/mol
- water Exp (hydration) [7, 20]: -2.86 kcal/mol
- CHEX Exp (solvation) [14, 23]: -4.36 kcal/mol
- SMD free energy of hydration [8]: -3.00 kcal/mol
- PCM free energy of hydration [9]: -3.80 kcal/mol
- Exp (log D) [17]: 1.10

Compound: CC=O [acetaldehyde]
- water Arrow MD Error [1, 18]: 0.18 kcal/mol
- water Arrow PIMD8 Error [1, 19]: 0.27 kcal/mol
- Arrow PIMD8 Error [1]: 0.27 kcal/mol
- COSMO/Molpro Error [2]: 3.97 kcal/mol
- SMD Error [3]: 0.30 kcal/mol
- PCM Error [4]: 0.20 kcal/mol
- COSMO-RS error [5]: 0.18 kcal/mol
- FML error [6]: 0.03 kcal/mol

Compound: Cc1cccc(O)c1 [m-cresol]
- water Arrow MD Error [1, 18]: 2.12 kcal/mol
- water Arrow PIMD8 Error [1, 19]: 1.03 kcal/mol
- Arrow PIMD8 Error [1]: 1.03 kcal/mol
- log D Arrow MD Error [11, 21]: 0.65
- log D Arrow PIMD Error [11, 22]: 0.09
- COSMO/Molpro Error [2]: 3.97 kcal/mol
- SMD Error [3]: 0.69 kcal/mol
- PCM Error [4]: 1.49 kcal/mol
- FML error [6]: 0.72 kcal/mol
- water Exp (hydration) [7, 20]: -5.49 kcal/mol
- CHEX Exp (solvation) [14, 23]: -5.20 kcal/mol
- SMD free energy of hydration [8]: -4.80 kcal/mol
- PCM free energy of hydration [9]: -4.00 kcal/mol
- Exp (log D) [17]: −0.21
